This is an account of results in patent US10253049B2, “Boronic acid derivatives” (MERCK PATENT GMBH, priority 2014, dated 2019).

For test [1], the target named is Beta5 (purified human constitutive proteasome) (Homo sapiens, UniProt P28074). As to the kind of experiment: Determination of Beta5 activity (fluorescence intensity assay, Suc-LLVY-AMC). The test is classed as biochemical. The procedure:
Determination of Beta5 Activity
Measurement of Beta5 inhibition is performed in 384 well format based on fluorescence intensity assay.
(§1) Purified human constitutive proteasome (1.25 nM) and serial diluted compounds in DMSO (range of concentrations from 30 μM to 15 pM) or controls are incubated for 20 minutes or 120 minutes (long incubation) at 25° C. in assay buffer containing 50 mM Tris pH 7.4, 0.03% SDS, 1 mM EDTA and 1% DMSO. The reaction is initiated by the addition of the fluorogenic peptide substrate, Suc-LLVY-AMC (Bachem I-1395), at a concentration of 40 μM. After 60 minutes of incubation at 37° C., fluorescence intensity is measured at λex=350 nm and λem=450 nm with a fluorescence reader (Perkin Elmer Envision reader or equivalent).
(§2) Unless indicated otherwise the results are obtained after incubation for 20 minutes.

Test [2] deals with LMP7 (purified human immunoproteasome) (Homo sapiens, UniProt P28062). Nature of the test: Determination of LMP7 activity (fluorescence intensity assay, Suc-LLVY-AMC). The format is biochemical. The procedure: Determination of LMP7 Activity
Measurement of LMP7 inhibition is performed in 384 well format based on fluorescence intensity assay.
as §1, with “immunoproteasome (0.25” for “constitutive proteasome (1.25”
as §2

With `Cc1ccc(S(=O)(=O)N(CC(=O)N[C@@H](Cc2ccc(C)cc2C)B(O)O)C(C)C)cc1` [Compound No. 33, [(1R)-2-(2,4-dimethylphenyl)-1-[[2-[isopropyl(p-tolylsulfonyl)amino]-acetyl]amino]ethyl]boronic acid], in test [1] (incubation for 20 minutes), the IC50 – broadly, the midpoint of a concentration-inhibition curve – lay in the range of 500 to 5000 nM and the “Selectivity LMP7 vs Beta5” value is reported as “+++++ (+++++: Selectivity ≥ 70)”. Further, the IC50 in test [2] (incubation for 20 minutes) is less than 50 nM.
As for `Cc1ccc(S(=O)(=O)N(CC(=O)N[C@@H](C[C@@H]2COc3ccccc32)B(O)O)C(C)C)cc1` [Compound No. 41, [(1R)-2-[(3S)-2,3-dihydrobenzofuran-3-yl]-1-[[2-[isopropyl(p-tolylsulfonyl)amino]acetyl]amino]ethyl]boronic acid], in test [1] (long incubation (120 min)), the concentration for half-maximal inhibition (IC50) was 500 to 5000 nM and the “Selectivity LMP7 vs Beta5” value was “+++++ (+++++: Selectivity ≥ 70)”. The same molecule showed an IC50 in test [2] (long incubation (120 min)) of less than 50 nM.
In the case of `Cc1ccc(C[C@H](NC(=O)CCN(c2ccccc2)S(C)(=O)=O)B(O)O)cc1` [Compound No. 3, [(1R)-1-[3-(N-methylsulfonylanilino)propanoylamino]-2-(p-tolyl)ethyl]boronic acid], in test [1] (incubation for 20 minutes), the IC50 fell in the range of 50 to 500 nM and the “Selectivity LMP7 vs Beta5” value was “+++ (+++: 30 ≤ Selectivity < 50)”. Further, the IC50 in test [2] (incubation for 20 minutes) was less than 50 nM.
For `CCN(CCC(=O)N[C@@H](Cc1ccc(F)cc1)B(O)O)C(=O)c1ccc(OC)cc1` [Compound No. 25, [(1R)-1-[3-[ethyl-(4-methoxybenzoyl)amino]propanoylamino]-2-(4-fluorophenyl)ethyl]boronic acid], in that order: 500 to 5000 nM, “++++ (++++: 50 ≤ Selectivity < 70)” and less than 50 nM.
For `CCN(CCC(=O)N[C@@H](Cc1ccc(F)cc1)B(O)O)C(=O)c1ccc(C(F)(F)F)cc1` [Compound No. 27, [(1R)-1-[3-[ethyl-[4-(trifluoromethyl)benzoyl]amino]propanoylamino]-2-(4-fluorophenyl)ethyl]boronic acid], in that order: 50 to 500 nM, “+++ (+++: 30 ≤ Selectivity < 50)” and less than 50 nM.
`Cc1ccc(C[C@H](NC(=O)CN(c2ccccc2)S(=O)(=O)c2ccccc2)B(O)O)c(C)c1` [Compound No. 35, [(1R)-1-[[2-[N-(benzenesulfonyl)anilino]acetyl]amino]-2-(2,4-dimethylphenyl)ethyl]boronic acid]: in test [1] (incubation for 20 minutes), the 50% inhibitory concentration (IC50) lay within 50 to 500 nM and the “Selectivity LMP7 vs Beta5” value was “++++ (++++: 50 ≤ Selectivity < 70)”. In addition, in test [2] (incubation for 20 minutes), the IC50 is less than 50 nM.
As to `CCN(CCC(=O)N[C@@H](C[C@@H]1COc2ccccc21)B(O)O)C(=O)c1ccc(Cl)cc1` [Compound No. 42, [(1R)-1-[3-[(4-chlorobenzoyl)-ethyl-amino]propanoylamino]-2-[(3S)-2,3-dihydrobenzofuran-3-yl]ethyl]boronic acid], in test [1] (long incubation (120 min)), the IC50 fell in the range of 50 to 500 nM and the “Selectivity LMP7 vs Beta5” value is on record as “+++++ (+++++: Selectivity ≥ 70)”. In test [2] (long incubation (120 min)), this molecule had an IC50 of less than 50 nM.
On to `CCC(=O)N(CC(=O)N[C@@H](Cc1ccsc1)B(O)O)c1ccccc1F` [Compound No. 39, [(1R)-1-[[2-(2-fluoro-N-propanoyl-anilino)acetyl]amino]-2-(3-thienyl)ethyl]boronic acid], for which the figures for the IC50 in test [1] (incubation for 20 minutes) and in test [2] (incubation for 20 minutes) were more than 5000 nM and 500 to 5000 nM, respectively. Moreover, the “Selectivity LMP7 vs Beta5” value in test [1] (incubation for 20 minutes) is recorded as “+++ (+++: 30 ≤ Selectivity < 50)”.
Regarding `CCN(CCC(=O)N[C@@H](Cc1ccc(C)cc1C)B(O)O)C(=O)c1ccc(C)cc1` [Compound No. 19, [(1R)-2-(2,4-dimethylphenyl)-1-[3-[ethyl-(4-methylbenzoyl)amino]-propanoylamino]-ethyl]boronic acid], in test [1] (incubation for 20 minutes), the IC50 lay in the range of 500 to 5000 nM and the “Selectivity LMP7 vs Beta5” value is on record as “+++++ (+++++: Selectivity ≥ 70)”. Besides, in test [2] (incubation for 20 minutes), the IC50 was less than 50 nM.
The like results for `CCC(=O)N(CC(=O)N[C@@H](Cc1ccc(C)cc1C)B(O)O)c1ccccc1` [Compound No. 34, [(1R)-2-(2,4-dimethylphenyl)-1-[[2-(N-propanoylanilino)acetyl]amino]-ethyl]boronic acid] were, in that order, 500 to 5000 nM, “+++++ (+++++: Selectivity ≥ 70)” and less than 50 nM.
